# Experimental data taken from the supplement of paper PMC4858399.
# Structures can show the parent of a compound that is named as a salt.
# How the values were obtained:
# Details in all cases: exposure time 48 h
# [1] = tested on: Caenorhabditis elegans N2; assay: AC50 for larval growth inhibition (Hill fit); higher = less potent
# In short: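 Worms were synchronised C. elegans N2 L1 larvae, 50 per well of a 96-well plate, kept 48 h at 20°C in K-medium with killed OP50, 1% DMSO and 0.5–200 µM chemical. Size was taken as COPAS Biosort extinction, log-transformed and averaged per well, using only wells with at least 10 worms. AC50 was estimated by a constrained Hill fit with weighted genetic-algorithm regression; values outside the range are censored.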
# [2] = tested on: Caenorhabditis elegans N2; assay: lowest effective concentration for larval growth inhibition (size below effect threshold); higher = less potent
# In short: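 Chemical exposure ran for 48 h at 20°C: 50 C. elegans N2 L1 larvae per 96-well in K-medium with killed bacteria, 1% DMSO and 0.5, 1, 5, 10, 50, 100 or 200 µM chemical. Extinction of each worm, read as size on the Biosort, was log-transformed and averaged by well. The lowest effective concentration is the first dose whose plate-adjusted mean size is below a fixed value and remains so at all higher doses; the value is 5.665.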
# [3] = tested on: Caenorhabditis elegans N2; assay: mean nematode size ln(EXT) after 48 h, plate-adjusted (DMSO control set to 6) (ln(EXT), control-adjusted); higher = larger nematodes / less growth inhibition
# In short: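 Synchronised C. elegans N2 L1 larvae (50 per well, 4–6 wells per treatment) were grown for 48 h at 20°C in K-medium with killed OP50, 1% DMSO and 0.5–200 µM chemical. The Biosort measured each worm's extinction, and debris was removed by a growth model. Values were natural-logged and averaged per well. Mean size was then plate-adjusted by subtracting the vehicle control mean and adding 6.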
Structure (SMILES),AC50 for larval growth inhibition [1] [µM],lowest effective concentration [2] [µM],mean nematode size ln(EXT) (ln) ([3]; 0.5 µM),mean nematode size ln(EXT) (ln) ([3]; 1 µM),mean nematode size ln(EXT) (ln) ([3]; 5 µM),mean nematode size ln(EXT) (ln) ([3]; 10 µM),mean nematode size ln(EXT) (ln) ([3]; 50 µM),mean nematode size ln(EXT) (ln) ([3]; 100 µM),mean nematode size ln(EXT) (ln) ([3]; 200 µM)
CCCC1COC(Cn2cncn2)(c2ccc(Cl)cc2Cl)O1 (centres undefined) [Propiconazole],> 200,200,6.02,6.09,6.16,6.21,5.95,5.93,5.05
O=C(O)C1C(C(=O)O)C2(Cl)C(Cl)=C(Cl)C1(Cl)C2(Cl)Cl (centres undefined) [Chlorendic acid],> 200,100,5.71,5.85,5.82,5.84,5.76,5.65,5.45
CCCSP(=O)(OCC)Oc1ccc(Br)cc1Cl (centres undefined) [Profenofos],56.4,50,5.75,6.26,6.17,6.04,4.95,3.31,3.04
"C=CCc1cc(S(=O)(=O)c2ccc(O)c(CC=C)c2)ccc1O [4,4'-sulfonylbis[2-(prop-2-en-1-yl)phenol]]",190,50,5.87,5.88,5.9,5.89,5.39,5.1,4.49
CCCCc1oc2ccccc2c1C(=O)c1cc(I)c(OCCN(CC)CC)c(I)c1 [Amiodarone HCl],31.9,50,5.9,5.96,5.82,5.72,4.41,3.85,3.8
"Clc1ccc(C(c2ccc(Cl)cc2)C(Cl)Cl)cc1 [p,p'-DDD]",1.88,≤ 0.5,5.59,5.57,3.62,3.7,3.68,3.57,3.14
CCCCCCc1ccc(O)cc1O [4-Hexylresorcinol],181,50,6,5.89,5.83,5.84,5.6,5.03,4.47
CC(C)(C)c1cc(/C=C2\SC(=N)NC2=O)cc(C(C)(C)C)c1O [Darbufelone mesylate],31.2,≤ 0.5,5.59,5.62,5.03,5.48,4.17,4.18,3.87
Cc1c(COC(=O)[C@@H]2[C@H](/C=C(\Cl)C(F)(F)F)C2(C)C)cccc1-c1ccccc1 (racemic) [Bifenthrin],> 200,200,5.92,5.85,5.84,5.96,5.9,5.78,5.37
CCCCCCC(=O)O [Heptanoic acid],> 200,200,5.88,5.97,5.87,6.04,5.85,5.87,5.43
Cc1ccc(C(C)(C)C)c(O)c1 [2-tert-Butyl-5-methylphenol],> 200,200,6.07,6.05,6.02,6.06,5.95,5.91,4.77
